Reference: US11279735B2, “Cyclic peptide antibiotics” (priority 2017, dated 2022)
In brackets after ≈: the same amount, converted by molar mass. *1 amine or outer side, *2 acyl side, *3 side chain or, on linkers, in order; H or OH if unused. Where a SMILES comes first, the peptide text is derived from it. [ ]: non-standard residue; d: D form. The star is where a group is joined. X6 = CCCCCC[C@@H](OC[C@@H](CC)N[*:1])[C@@H](C)C(=O)[*:2]; X17 = CCCCCC[C@@H](O[C@H](C)CN[*:1])[C@@H](C)C(=O)[*:2]; X2 = CCCCCC[C@@H](OC[C@@H](C)N[*:1])[C@@H](C)C(=O)[*:2]; Cyclobutyl(trans-3-NH2) = N[C@H]1C[C@H](*)C1; Gly(cHept) = N[C@H](C(=O)O)C1CCCCCC1; aThr = C[C@H](O)[C@H](N)C(=O)O; NMeL = CN[C@@H](CC(C)C)C(=O)O; Chg = N[C@H](C(=O)O)C1CCCCC1; NMeNva = CCC[C@H](NC)C(=O)O; Dap = NC[C@H](N)C(=O)O; Propyl(3-NH2) = NCCC*; Ethyl(2-NH2) = NCC*; X15 = OC[C@@H](O)C*

System: Escherichia coli (E. coli) strain CFT073 ATCC 700928
Type: cell-based
Details: ATCC 700928, 22 h
Method in brief: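 Broth microdilution MIC per CLSI M07-A8 in cation-adjusted Mueller Hinton II broth with 0.002% Tween-80. Ten-point 2-fold series topped at 64, 4, 0.5 or 0.13 μg/mL depending on protocol. Final inoculum OD600 0.0005, incubated 22 h at 35 °C.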

MIC	SMILES
0.66 µM (≈ 0.474 µg/mL)	CCC[C@H]1C(=O)N[C@@H](C2CCCCCC2)C(=O)N[C@@H](CN)C(=O)N[C@@H]([C@H](C)O)C(=O)NCC(=O)O[C@H](CCC2CC3CCC2C3)[C@@H](C)C(=O)N1C (stereo partly drawn) [Example 129, (6S,9S,12S,15S,18R,19R)-9-(aminomethyl)-12-cycloheptyl-16,18-dimethyl-19-(2-norbornan-2-ylethyl)-15-propyl-6-[(1S)-1-hydroxyethyl]-1-oxa-4,7,10,13,16-pentazacyclononadecane-2,5,8,11,14,17-hexone]
44 µM (≈ 31.3 µg/mL)	CCCCCC[C@H]1OC[C@@H](C)NC(=O)[C@H](COCCCN)NC(=O)[C@H](CO)NC(=O)[C@H](C2CCCCC2)NC(=O)[C@H](CCC)N(C)C(=O)[C@@H]1C [Example 130, (3R,6S,9S,12S,15S,18R,19R)-6-(3-aminopropoxymethyl)-12-cyclohexyl-19-hexyl-9-(hydroxymethyl)-3,16,18-trimethyl-15-propyl-1-oxa-4,7,10,13,16-pentazacyclononadecane-5,8,11,14,17-pentone] (cyclo([Chg]SS(Propyl(3-NH2))[X2][NMeNva]))
11 µM (≈ 7.96 µg/mL)	CCCCCC[C@H]1OC[C@@H](C)NC(=O)[C@H](COCCCN)NC(=O)[C@H](CN)NC(=O)[C@H](C2CCCCC2)NC(=O)[C@H](CC(C)C)N(C)C(=O)[C@@H]1C [Example 131, (3R,6S,9S,12S,15S,18R,19R)-9-(aminomethyl)-6-(3-aminopropoxymethyl)-12-cyclohexyl-19-hexyl-15-isobutyl-3,16,18-trimethyl-1-oxa-4,7,10,13,16-pentazacyclononadecane-5,8,11,14,17-pentone] (cyclo([Chg][Dap]S(Propyl(3-NH2))[X2][NMeL]))
6.1 µM (≈ 4.07 µg/mL)	CCCCCC[C@H]1OC(=O)CNC(=O)[C@H]([C@H](C)O)NC(=O)[C@H](CO)NC(=O)[C@H](C2CCCCC2)NC(=O)[C@H](CCC)N(C)C(=O)[C@@H]1C [Example 132, (6S,9S,12S,15S,18R,19R)-12-cyclohexyl-19-hexyl-9-(hydroxymethyl)-16,18-dimethyl-15-propyl-6-[(1S)-1-hydroxyethyl]-1-oxa-4,7,10,13,16-pentazacyclononadecane-2,5,8,11,14,17-hexone]
3.1 µM (≈ 2.24 µg/mL)	CCCCCC[C@H]1OC(=O)CNC(=O)[C@H](COCCCN)NC(=O)[C@H](CN)NC(=O)[C@H](C2CCCCCC2)NC(=O)[C@H](CCC)N(C)C(=O)[C@@H]1C [Example 133, (6S,9S,12S,15S,18R,19R)-9-(aminomethyl)-6-(3-aminopropoxymethyl)-12-cycloheptyl-19-hexyl-16,18-dimethyl-15-propyl-1-oxa-4,7,10,13,16-pentazacyclononadecane-2,5,8,11,14,17-hexone]
0.78 µM (≈ 0.55 µg/mL)	CCC[C@H]1C(=O)N[C@@H](C2CCCCCC2)C(=O)N[C@@H](CN)C(=O)N[C@@H]([C@H](C)O)C(=O)NCC(=O)O[C@H](CC2CC3CCC2C3)[C@@H](C)C(=O)N1C (stereo partly drawn) [Example 134, (6S,9S,12S,15S,18R,19R)-9-(aminomethyl)-12-cycloheptyl-16,18-dimethyl-19-(norbornan-2-ylmethyl)-15-propyl-6-[(1S)-1-hydroxyethyl]-1-oxa-4,7,10,13,16-pentazacyclononadecane-2,5,8,11,14,17-hexone]
3.7 µM (≈ 2.82 µg/mL)	CCCCCC[C@H]1OC(=O)CNC(=O)[C@H]([C@H](C)O)NC(=O)[C@H](CN)NC(=O)[C@H](C2CCCCC2)NC(=O)[C@H](CC(C)C)N(C)C(=O)[C@@H]1CC1CCCCC1 [Example 135, (6S,9S,12S,15S,18R,19R)-9-(aminomethyl)-12-cyclohexyl-18-(cyclohexylmethyl)-19-hexyl-15-isobutyl-16-methyl-6-[(1S)-1-hydroxyethyl]-1-oxa-4,7,10,13,16-pentazacyclononadecane-2,5,8,11,14,17-hexone]
8.8 µM (≈ 6.52 µg/mL)	CCCCCC[C@H]1OC[C@@H](C)NC(=O)[C@H](COC[C@H](O)CO)NC(=O)[C@H](CN)NC(=O)[C@H](C2CCCCC2)NC(=O)[C@H](CC(C)C)N(C)C(=O)[C@@H]1C [Example 136, (3R,6S,9S,12S,15S,18R,19R)-9-(aminomethyl)-12-cyclohexyl-19-hexyl-15-isobutyl-3,16,18-trimethyl-6-[[(2R)-2,3-dihydroxypropoxy]methyl]-1-oxa-4,7,10,13,16-pentazacyclononadecane-5,8,11,14,17-pentone] (cyclo([Chg][Dap]S(X15)[X2][NMeL]))
12 µM (≈ 8.52 µg/mL)	CCCCCC[C@H]1OC[C@@H](C)NC(=O)[C@H](COCCN)NC(=O)[C@H](CN)NC(=O)[C@H](C2CCCCC2)NC(=O)[C@H](CC(C)C)N(C)C(=O)[C@@H]1C [Example 138, (3R,6S,9S,12S,15S,18R,19R)-6-(2-aminoethoxymethyl)-9-(aminomethyl)-12-cyclohexyl-19-hexyl-15-isobutx1-3,16,18-trimethyl-1-oxa-4,7,10,13,16-pentazacyclononadecane-5,8,11,14,17-pentone] (cyclo([Chg][Dap]S(Ethyl(2-NH2))[X2][NMeL]))
18 µM (≈ 13 µg/mL)	CCCCCC[C@H]1OC(=O)CNC(=O)[C@H](CNC(=O)CN)NC(=O)[C@H](CN)NC(=O)[C@H](C2CCCCC2)NC(=O)[C@H](CC(C)C)N(C)C(=O)[C@@H]1C [Example 139, 2-amino-N-[[(6S,9S,12S,15S,18R,19R)-9-(aminomethyl)-12-cyclohexyl-19-hexyl-15-isobutyl-16,18-dimethyl-2,5,8,11,14,17-hexaoxo-1-oxa-4,7,10,13,16-pentazacyclononadec-6-yl]methyl]acetamide]
35 µM (≈ 23.8 µg/mL)	CCCCCC[C@H]1O[C@H](C)CNC(=O)[C@H]([C@H](C)O)NC(=O)[C@H](CN)NC(=O)[C@H](C2CCCCC2)NC(=O)[C@H](CC(C)C)N(C)C(=O)[C@@H]1C [Example 140, (2R,6S,9S,12S,15S,18R,19R)-9-(aminomethyl)-12-cyclohexyl-19-hexyl-15-isobutyl-2,16,18-trimethyl-6-[(1S)-1-hydroxyethyl]-1-oxa-4,7,10,13,16-pentazacyclononadecane-5,8,11,14,17-pentone] (cyclo([Chg][Dap][aThr][X17][NMeL]))
8.8 µM (≈ 6.17 µg/mL)	CCCCCC[C@H]1OC(=O)CNC(=O)[C@H]([C@H](C)O)NC(=O)[C@H](CN)NC(=O)[C@H](C2Cc3ccccc3C2)NC(=O)[C@H](CCC)N(C)C(=O)[C@@H]1C [Example 142, (6S,9S,12S,15S,18R,19R)-9-(aminomethyl)-19-hexyl-12-indan-2-yl-16,18-dimethyl-15-propyl-6-[(1S)-1-hydroxyethyl]-1-oxa-4,7,10,13,16-pentazacyclononadecane-2,5,8,11,14,17-hexone]
25 µM (≈ 18.8 µg/mL)	CCCCCC[C@H]1OC(=O)CNC(=O)[C@H](CNC(=O)CN(C)C)NC(=O)[C@H](CN)NC(=O)[C@H](C2CCCCC2)NC(=O)[C@H](CC(C)C)N(C)C(=O)[C@@H]1C [Example 143, 2-(dimethylamino)-N-[[(6S,9S,12S,15S,18R,19R)-9-(aminomethyl)-12-cyclohexyl-19-hexyl-15-isobutyl-16,18-dimethyl-2,5,8,11,14,17-hexaoxo-1-oxa-4,7,10,13,16-pentazacyclononadec-6-yl]methyl]acetamide]
2.2 µM (≈ 1.53 µg/mL)	CCCCCC[C@H]1OC[C@@H](CC)NC(=O)[C@H]([C@H](C)O)NC(=O)[C@H](CN)NC(=O)[C@H](C2CCCCC2)NC(=O)[C@H](CC(C)C)N(C)C(=O)[C@@H]1C [Example 144, (3R,6S,9S,12S,15S,18R,19R)-9-(aminomethyl)-12-cyclohexyl-3-ethyl-19-hexyl-15-isobutyl-16,18-dimethyl-6-[(1S)-1-hydroxyethyl]-1-oxa-4,7,10,13,16-pentazacyclononadecane-5,8,11,14,17-pentone] (cyclo([Chg][Dap][aThr][X6][NMeL]))
12 µM (≈ 8.84 µg/mL)	CCCCCC[C@H]1OC(=O)CNC(=O)[C@H](CNC(=O)CCN)NC(=O)[C@H](CN)NC(=O)[C@H](C2CCCCC2)NC(=O)[C@H](CC(C)C)N(C)C(=O)[C@@H]1C [Example 145, 3-amino-N-[[(6S,9S,12S,15S,18R,19R)-9-(aminomethyl)-12-cyclohexyl-19-hexyl-15-isobutyl-16,18-dimethyl-2,5,8,11,14,17-hexaoxo-1-oxa-4,7,10,13,16-pentazacyclononadec-6-yl]methyl]propanamide]

SMILES	MIC
CCC[C@H]1C(=O)N[C@@H](C2CCCCCC2)C(=O)N[C@@H](CN)C(=O)N[C@@H](CO[C@H]2C[C@H](N)C2)C(=O)NCC(=O)O[C@H](CCC2CC3CCC2C3)[C@@H](C)C(=O)N1C (stereo partly drawn) [Example 137, (6S,9S,12S,15S,18R,19R)-6-[(3-aminocyclobutoxy)methyl]-9-(aminomethyl)-12-cycloheptyl-16,18-dimethyl-19-(2-norbornan-2-ylethyl)-15-propyl-1-oxa-4,7,10,13,16-pentazacyclononadecane-2,5,8,11,14,17-hexone]	0.78 µM (≈ 0.604 µg/mL)
CCC[C@H]1C(=O)N[C@@H](C2CCCCCC2)C(=O)N[C@@H](CN)C(=O)N[C@@H](CO[C@H]2C[C@H](N)C2)C(=O)NCC(=O)O[C@H](CC2CC3CCC2C3)[C@@H](C)C(=O)N1C (stereo partly drawn) [Example 141, (6S,9S,12S,15S,18R,19R)-6-[(3-aminocyclobutoxy)methyl]-9-(aminomethyl)-12-cycloheptyl-16,18-dimethyl-19-(norbornan-2-ylmethyl)-15-propyl-1-oxa-4,7,10,13,16-pentazacyclononadecane-2,5,8,11,14,17-hexone]	2.2 µM (≈ 1.67 µg/mL)
CCCCCC[C@H]1OC[C@@H](C)NC(=O)[C@H](CO[C@H]2C[C@H](N)C2)NC(=O)[C@H](CN)NC(=O)[C@H](C2CCCCCC2)NC(=O)[C@H](CCC)N(C)C(=O)[C@@H]1C [Example 146, (3R,6S,9S,12S,15S,18R,19R)-6-[(3-aminocyclobutoxy)methyl]-9-(aminomethyl)-12-cycloheptyl-19-hexyl-3,16,18-trimethyl-15-propyl-1-oxa-4,7,10,13,16-pentazacyclononadecane-5,8,11,14,17-pentone] (cyclo([Dap]S(Cyclobutyl(trans-3-NH2))[X2][NMeNva][Gly(cHept)]))	6.3 µM (≈ 4.64 µg/mL)
